Laboratory results from patent publication US20260102359A1, “COMBINATION TREATMENT OF DERMAL AND TRANSDERMAL FIBROTIC DISEASES, DISORDERS AND ASSOCIATED PAIN AND INFLAMMATION” (ERESINA, LLC, priority 2022, published 2026).
Counter-ions that a name gives are not always drawn. *1 amine or outer side, *2 acyl side, *3 side chain or, on linkers, in order; H or OH if unused. Where a SMILES comes first, the peptide text is derived from it. Bridges are numbered along the chain shown (N, C = ends). Roman numbers before positions name the chains, in order. [ ]: non-standard residue; d: D form. Actinocin(9to1) = Cc1c2oc3c(C)ccc(C(=O)[*:1])c3nc-2c(C(=O)[*:2])c(N)c1=O; NMeV = CN[C@H](C(=O)O)C(C)C; Sar = CNCC(=O)O

system: hDMFa myofibroblast cells

| SMILES | Compound Myofibroblast Cytotoxicity Activity |
| --- | --- |
| OC1OC[C@H](O)[C@H](O)[C@H]1O (mixture of isomers) [Cmpd 560, L-Arabinose] | ++++ |
| OC[C@H]1O[C@H](O[C@H]2[C@H](O)[C@@H](O)[C@@H](O[C@H]3[C@H](O)[C@@H](O)C(O)O[C@@H]3CO)O[C@@H]2CO)[C@H](O)[C@@H](O)[C@@H]1O (mixture of isomers) [Cmpd 634, Maltotriose] | +++ |
| CC(C)NCC(O)COc1ccc(CC(N)=O)cc1 (racemic) [Cmpd 14, (±)-Atenolol] | +++ |
| CC1CCC(C(C)C)C(O)C1 (racemic) [Cmpd 16, (±)-Menthol] | ++ |
| CCCCCCCCCCCCCCCC(=O)OC(CC(=O)O)C[N+](C)(C)C.[Cl-] (racemic) [Cmpd 17, (±)-Palmitoylcarnitine chloride] | ++ |
| CC1=CCC2CC1C2(C)C (racemic) [Cmpd 18, (±)-α-Pinene] | ++ |
| O[C@H](CS)[C@H](O)CS (racemic) [Cmpd 368, DL-Dithiothreitol] | ++++ |
| CSCCC(N)C(=O)O (racemic) [Cmpd 369, DL-Methionine] | ++ |
| CC(C)(CO)C(O)C(=O)NCCCO (racemic) [Cmpd 370, DL-Panthenol] | +++ |
| Cl.NCCCC(N)(C(=O)O)C(F)F (racemic) [Cmpd 371, DL-α-Difluoromethylornithine (hydrochloride hydrate)] | ++ |
| Cc1c(C)c2c(c(C)c1O)CCC(C)(CCCC(C)CCCC(C)CCCC(C)C)O2 (racemic) [Cmpd 373, DL-α-Tocopherol] | ++ |
| CCC/C=C1\OC(=O)C2=C1CCC=C2 [Cmpd 2, Z-Ligustilide] | ++ |
| C/C=C/c1cc(OC)c(OC)cc1OC [Cmpd 3, α-Asarone] | ++ |
| C=C1CC/C=C(\C)CC[C@@H]2[C@@H]1CC2(C)C [Cmpd 8, β-Caryophyllene] | +++ |
| CCCCC/C=C\C/C=C\C/C=C\CCCCC(=O)O [Cmpd 9, γ-Linolenic Acid] | +++ |
| CC12CCC(CC1=O)C2(C)C (stereo not drawn) [Cmpd 11, (+)-Camphor] | ++ |
| CC1=CC[C@@H]2C[C@H]1C2(C)C [Cmpd 19, (1R)-(+)-α-Pinene] | + |
| CC1=CC(=O)[C@H]2C[C@@H]1C2(C)C [Cmpd 20, (1S)-(−)-Verbenone] | ++ |
| CC1=CC[C@H]2C[C@@H]1C2(C)C [Cmpd 21, (1S)-(-)-α-Pinene] | ++ |
| C=C1CC[C@H]2C[C@@H]1C2(C)C [Cmpd 22, (1S)-(-)-β-Pinene] | ++ |
| Cl.N[C@H](C=O)[C@@H](O)[C@H](O)[C@H](O)CO [Cmpd 23, (2S,3R,4S,5R)-2-Amino-3,4,5,6-tetrahydroxyhexanal hydrochloride] | ++ |
| C=C(C)[C@@H]1CC=C(C)C(=O)C1 [Cmpd 24, (R)-(−)-Carvone] | ++ |
| C[C@@H](Oc1cc(-c2cnn(C3CCNCC3)c2)cnc1N)c1c(Cl)ccc(F)c1Cl [Cmpd 27, (R)-Crizotinib] | ++++ |

| SMILES | Compound Myofibroblast Cytotoxicity Activity |
| --- | --- |
| C=C(C)[C@H]1CC=C(C)C(=O)C1 [Cmpd 28, (S)-(+)-Carvone] | ++ |
| C[C@H](Oc1cc(-c2cnn(C3CCNCC3)c2)cnc1N)c1c(Cl)ccc(F)c1Cl [Cmpd 29, (S)-Crizotinib] | ++++ |
| C[C@H](C(=O)O)c1ccc(-c2ccccc2)c(F)c1 [Cmpd 30, (S)-Flurbiprofen] | ++++ |
| COc1ccc2cc([C@H](C)C(=O)O)ccc2c1 [Cmpd 32, (S)-Naproxen] | ++ |
| CCCCCCCC/C=C\CCCCCCCC(=O)OCC(C[N+](C)(C)C)OC(=O)CCCCCCC/C=C\CCCCCCCC.[Cl-] (stereo not shown) [Cmpd 33, 1,2-Dioleoyl-3-trimethylammoniumpropane (chloride)] | +++ |
| Oc1ncnc2[nH]ncc12 [Cmpd 37] | + |
| C=CCCCCCCCCC(=O)O [Cmpd 39, 10-Undecenoic acid] | ++ |
| C=CCNC1=C2C[C@@H](C)C[C@H](OC)[C@H](O)[C@@H](C)/C=C(\C)[C@H](OC(N)=O)[C@@H](OC)/C=C\C=C(/C)C(=O)NC(=CC1=O)C2=O [Cmpd 40, 17-AAG (KOS953)] | +++ |
| CCCCCCCCCCCCCCO [Cmpd 43, 1-Tetradecanol] | + |
| O=CC[C@H](O)[C@H](O)CO [Cmpd 46, 2-Deoxy-D-ribose] | ++++ |
| O=c1ccn([C@H]2C[C@H](O)[C@@H](CO)O2)c(=O)[nH]1 [Cmpd 47, 2-Deoxyuridine] | ++ |
| O=C(O)c1cc(O)cc(O)c1 [Cmpd 50, 3-5-Dihydroxybenzoic Acid] | ++ |
| CC(=O)O[C@@H]1CC[C@@]2(C)[C@@H](CC[C@]3(C)[C@@H]2C(=O)C=C2[C@@H]4[C@@H](C)[C@H](C)CC[C@]4(C)CC[C@]23C)[C@@]1(C)C(=O)O [Cmpd 51, 3-acetyl-11-keto-β-Boswellic Acid] | +++++ |
| Cc1occc(=O)c1O [Cmpd 52] | ++ |
| CCCCC1OC(=O)c2ccccc21 (stereo not shown) [Cmpd 54, 3-n-Butylphathlide] | ++ |
| NCc1ccc(C(=O)O)cc1 [Cmpd 56] | ++ |
| Nc1ccc(C(=O)O)c(O)c1 [Cmpd 59, 4-Aminosalicylic acid] | ++ |
| O=C(O)Cc1ccc(-c2ccccc2)cc1 [Cmpd 60, 4-Biphenylacetic acid] | ++ |
| O=C(O)c1ccc(O)cc1 [Cmpd 61] | ++++ |
| Cc1cc(=O)oc2cc(O)ccc12 [Cmpd 63, 4-Methylumbelliferone (4-MU)] | ++++ |
| Nc1ncn([C@@H]2O[C@H](CO)[C@@H](O)[C@H]2O)c(=O)n1 [Cmpd 64, 5-Azacytidine] | +++ |
| O=Cc1ccc(CO)o1 [Cmpd 66] | ++ |
| O=c1ccc2cc(O)c(O)cc2o1 [Cmpd 69] | ++ |

| SMILES | Compound Myofibroblast Cytotoxicity Activity |
| --- | --- |
| Br.NCCc1cc(O)c(O)cc1O [Cmpd 72] | ++++ |
| Oc1cccc2cccnc12 [Cmpd 74, 8-Hydroxyquinoline] | ++ |
| CC(=O)O[C@H]1CC[C@@]2(C)C(=CC[C@@H]3[C@@H]2CC[C@]2(C)C(c4cccnc4)=CC[C@@H]32)C1 [Cmpd 75, Abiraterone acetate] | +++ |
| CC1(C)CCC(c2ccc(Cl)cc2)=C(CN2CCN(c3ccc(C(=O)NS(=O)(=O)c4ccc(N[C@H](CCN5CCOCC5)CSc5ccccc5)c(S(=O)(=O)C(F)(F)F)c4)cc3)CC2)C1 [Cmpd 77, ABT-263 (Navitoclax)] | +++++ |
| CC(=O)Nc1ccccc1 [Cmpd 79, Acetanilide] | ++++ |
| CC(=O)O.Cc1cc2c(C(C)C)c(O)c(O)c(C=O)c2c(O)c1-c1c(C)cc2c(C(C)C)c(O)c(O)c(C=O)c2c1O [Cmpd 80, Acetate gossypol] | +++++ |
| CC(=O)NO [Cmpd 81, Acetohydroxamic Acid] | ++++ |
| CC(=O)c1ccccc1 [Cmpd 82, Acetophenone] | ++ |
| CC(=O)OCC[N+](C)(C)C.[I-] [Cmpd 83, Acetylcholine iodide] | ++ |
| Cc1c2oc3c(C)ccc(C(=O)N[C@@H]4C(=O)N[C@H](C(C)C)C(=O)N5CCC[C@H]5C(=O)N(C)CC(=O)N(C)[C@@H](C(C)C)C(=O)O[C@@H]4C)c3nc-2c(C(=O)N[C@@H]2C(=O)N[C@H](C(C)C)C(=O)N3CCC[C@H]3C(=O)N(C)CC(=O)N(C)[C@@H](C(C)C)C(=O)O[C@@H]2C)c(N)c1=O [Cmpd 86, Actinomycin D] (I: T[dV]P[Sar][NMeV] / II: T[dV]P[Sar][NMeV]; ester I:1-I:C, II:1-II:C; linker I:N-II:N via Actinocin(9to1)) | ++ |
| CC(C)(C)C(=O)OCOP(=O)(COCCn1cnc2c(N)ncnc21)OCOC(=O)C(C)(C)C [Cmpd 89, Adefovir Dipivoxil] | ++++ |
| Nc1ncnc2c1ncn2[C@@H]1O[C@H](COP(=O)(O)OP(=O)(O)OP(=O)(O)O)[C@@H](O)[C@H]1O [Cmpd 91, Adenosine 5-triphosphate] | +++ |
| Nc1ncnc2c1ncn2[C@@H]1O[C@H](COP(=O)(O)OP(=O)(O)O)[C@@H](O)[C@H]1O [Cmpd 92] | ++ |
| C=C1C(=O)O[C@@H]2C[C@@]3(C)CCC[C@H](C)C3=C[C@H]12 [Cmpd 97, Alantolactone] | ++++ |
| C=C1/C(=C\C=C2/CCC[C@]3(C)[C@@H]([C@H](C)CCCC(C)C)CC[C@@H]23)C[C@@H](O)C[C@@H]1O [Cmpd 98, Alfacalcidol] | +++ |
| Cn1c(=O)cc(N2CCC[C@@H](N)C2)n(Cc2ccccc2C#N)c1=O [Cmpd 100, Alogliptin Benzoate] | +++ |
| Cc1[nH]cnc1CN1CCc2c(c3ccccc3n2C)C1=O.Cl [Cmpd 101, Alosetron Hydrochloride] | ++++ |
| N=C(N)NC(=O)c1nc(Cl)c(N)nc1N [Cmpd 105, Amiloride HCl dihydrate] | ++ |
| CCCCc1oc2ccccc2c1C(=O)c1cc(I)c(OCCN(CC)CC)c(I)c1 [Cmpd 107, Amiodarone HCl] | +++ |
| CCOC(=O)C1=C(COCCN)NC(C)=C(C(=O)OC)C1c1ccccc1Cl (stereo not shown) [Cmpd 110, Amlodipine] | +++ |
| CCOC(=O)C1=C(COCCN)NC(C)=C(C(=O)OC)C1c1ccccc1Cl (stereo not shown) [Cmpd 111, Amlodipine Besylate] | ++++ |
